These antisense oligonucleotides have a phosphorothioate backbone; sugars and methylation of C are not fully specified. Some results are limits rather than exact numbers.
Further: test concentration or dose not given here.

The first series deals with RHOG. The note with it: ASO.
The sequence GAACACTTCCTTGACACC displayed a remaining target (mRNA or protein) (fraction of control) of 0.69.

In turn, GACCTGGTGCCCCTCCCG came in with a remaining target (mRNA or protein) (fraction of control) of 0.65.

For GAGGGCAGAGGTTAGAGA, the remaining target (mRNA or protein) (fraction of control) was 0.79.

In turn, GCAGCCTCCAAGCCAAGT displayed a remaining target (mRNA or protein) (fraction of control) of 0.58.

GCATCGTGGGTGCAGTTG registered a remaining target (mRNA or protein) (fraction of control) of 0.53.

Turning to GCGCGCTGTAATTGTCGA, the remaining target (mRNA or protein) (fraction of control) stood at 0.64.

With GGCAGTGCCTCCTCTCTC, the remaining target (mRNA or protein) (fraction of control) is 0.65.

On to GGGTCCAACCTTGGCTTG, for which the remaining target (mRNA or protein) (fraction of control) is 0.42.

In turn, GGGTGTCAGGCTGGGCTC registered a remaining target (mRNA or protein) (fraction of control) of 0.85.

Sequence GGTTCACTGTGCGCCCGT returned a remaining target (mRNA or protein) (fraction of control) of 0.84.

The sequence GTAGCGCACAGCGTGGAT gave a remaining target (mRNA or protein) (fraction of control) of 0.65.

GTCAGCAAATGCGTAAGG: the remaining target (mRNA or protein) (fraction of control) is 0.76.

GTCAGTAGCGGAAAATGG displayed a remaining target (mRNA or protein) (fraction of control) of no less than 1.

GTCCCACAGGTTCAGGTT: the remaining target (mRNA or protein) (fraction of control) amounted to 0.69.

GTGCAGTTGCTGTAGTGA had a remaining target (mRNA or protein) (fraction of control) of 0.9.

For the sequence TCTTCTGGACCCCTCTGG, the remaining target (mRNA or protein) (fraction of control) is 0.64.

TGGAGAAGGGAGAGAGCA registered a remaining target (mRNA or protein) (fraction of control) of 0.68.

The sequence TGTACGGAGGCGGTCATA returned a remaining target (mRNA or protein) (fraction of control) of 0.63.

Sequence TTGTGTAGCAGATGAGCA came in with a remaining target (mRNA or protein) (fraction of control) of 0.65.

In a further series the target is PRKAR2A. The note with it: ASO.
For the sequence AAGGAGAATATCTTTGCAAG, the remaining target (mRNA or protein) (fraction of control) was no less than 1.

In turn, AATGCCCATAACCACAGCAA came in with a remaining target (mRNA or protein) (fraction of control) of 0.39.

The sequence AGGCGGGTGAAGTACTCCAC returned a remaining target (mRNA or protein) (fraction of control) of 0.46.

With ATAACTAAGCATTTGACATC, the remaining target (mRNA or protein) (fraction of control) is 0.94.

In the case of ATCTGGATGTGGCTCATGCC, the remaining target (mRNA or protein) (fraction of control) came to 0.82.

On to ATCTGTATCTTCCTCTTCCT, for which the remaining target (mRNA or protein) (fraction of control) is 0.73.

ATGTGGCTCATGCCGGCGGC gave a remaining target (mRNA or protein) (fraction of control) of 0.95.

CAATGACATGCTCATCAGCT displayed a remaining target (mRNA or protein) (fraction of control) of 0.74.

The sequence CACACCTACTGCCCGAGGTT displayed a remaining target (mRNA or protein) (fraction of control) of 0.38.

CAGGAACAGTTCTGTCATGT: the remaining target (mRNA or protein) (fraction of control) was found to be 0.65.

Regarding CATGCCGGCGGCGGCCGAAG, the remaining target (mRNA or protein) (fraction of control) was no less than 1.

The sequence CCATGCAGGGCCCCAGAAGC yielded a remaining target (mRNA or protein) (fraction of control) of 0.52.

With CCCGAGGTTGCCCAGATCCA, the remaining target (mRNA or protein) (fraction of control) is no less than 1.

Take CGCACGGCCCCGGCTCACGT: the remaining target (mRNA or protein) (fraction of control) turned out to be 0.68.

The sequence CGGGATCTGGATGTGGCTCA yielded a remaining target (mRNA or protein) (fraction of control) of 0.81.

For CTAGGAACTGGAACTTCCAA, the remaining target (mRNA or protein) (fraction of control) was found to be 0.91.

Sequence CTCATGCCGGCGGCGGCCGA showed a remaining target (mRNA or protein) (fraction of control) of 0.96.

In turn, CTGACACCTCTAGTGATTTA returned a remaining target (mRNA or protein) (fraction of control) of no less than 1.

Sequence CTGGATGTGGCTCATGCCGG displayed a remaining target (mRNA or protein) (fraction of control) of 0.52.

GAGAGACATGCCGTTTTGAA had a remaining target (mRNA or protein) (fraction of control) of 0.51.

The sequence GCAGCGGGCAATCTCGACCT came in with a remaining target (mRNA or protein) (fraction of control) of 0.5.

Regarding GCATGTTTATACTTTGGACT, the remaining target (mRNA or protein) (fraction of control) amounted to 0.83.

The sequence GCGCAACCCTACGCTACCAC displayed a remaining target (mRNA or protein) (fraction of control) of 0.53.

Turning to GCGGCCACTGTCTCCGCGCT, the remaining target (mRNA or protein) (fraction of control) came to 0.67.

Sequence GCTGTTCCTCATAGTGTGAG yielded a remaining target (mRNA or protein) (fraction of control) of no less than 1.

GGATCTGGATGTGGCTCATG: the remaining target (mRNA or protein) (fraction of control) was 0.71.

GGATGTGGCTCATGCCGGCG: the remaining target (mRNA or protein) (fraction of control) turned out to be 0.94.

The sequence GGCTCATGCCGGCGGCGGCC gave a remaining target (mRNA or protein) (fraction of control) of 0.62.

GGGTGTTGTACATCAGAGCT had a remaining target (mRNA or protein) (fraction of control) of 0.87.

Regarding GTGGCTCATGCCGGCGGCGG, the remaining target (mRNA or protein) (fraction of control) was no less than 1.

As for TAATGAATGGGCCTTCAGAA, the remaining target (mRNA or protein) (fraction of control) was no less than 1.

The sequence TACTAAAATGTCATAAGTTC displayed a remaining target (mRNA or protein) (fraction of control) of no less than 1.

Sequence TGAGTGATTATGCGTTCTCC showed a remaining target (mRNA or protein) (fraction of control) of 0.8.

The sequence TGCAGCAGCTCCGTGAGCCC yielded a remaining target (mRNA or protein) (fraction of control) of 0.57.

Sequence TGCCGGCGGCGGCCGAAGGG registered a remaining target (mRNA or protein) (fraction of control) of no less than 1.

As for TGTGGCTGACCAGAAGGTTT, the remaining target (mRNA or protein) (fraction of control) worked out at 0.53.

The sequence TTCTAAAAGTCACCCGGTCC registered a remaining target (mRNA or protein) (fraction of control) of 0.39.

Sequence TTGAACCTCTGCCCATCCTT yielded a remaining target (mRNA or protein) (fraction of control) of 0.39.

TTTAGTCCTGCTTCTAATCA had a remaining target (mRNA or protein) (fraction of control) of 0.73.

In turn, TTTGTTGGTGACCAGGGCAA yielded a remaining target (mRNA or protein) (fraction of control) of 0.6.

(Values after the OligoGym collection.)
